Tests used:
[1] = tested on: immune cells in TME of B16F10 melanoma tumors; assay: Flow cytometry of immune cells in B16F10 TME; format: in vivo, mice
Experimental: Mice bearing B16F10 tumors were treated with the following 4 experimental groups (n=8): untreated, 1×EPs, 3×cGAMP-S, and 1×cGAMP-S plus cGAMP-MPs, respectively (FIG. 4A). Tumors were collected at day 16 post tumor inoculation and cut into 50-100 mg small pieces in a 1.5 mL microcentrifuge tube. The tumors were lysed in radioimmunoprecipitation assay (RIPA) buffer (Sigma-Aldrich), homogenized, and centrifuged at 20130 rcf for 10 min. The protein content in the supernatant was quantified using a bicinchoninic acid protein assay kit (Thermo Fisher Scientific, MA, USA). Equal amounts of proteins (20 μg) were separated on a 4 to 15% gradient SDS-polyacrylamide gel (Bio-Rad, Hercules, CA) and electro-transferred to nitrocellulose membrane. The membranes were then blocked with 5% milk in tris-buffered saline supplemented with 0.05% Tween 20 and further incubated with GAPDH monoclonal antibody (Invitrogen, CA, cat. no. MA5-27912), phospho-TBK1/NAK (Ser172) (D52C2) Rabbit mAb (Cell Signaling Technology, cat. no. 5483S), or phospho-IRF-3 (S396) Rabbit mAb (Cell Signaling Technology, cat. no. 4947S) at 4° C. overnight. The membranes were then incubated with goat anti-rabbit IgG (H+L) Secondary Antibody, HRP (Invitrogen, cat. no. TG266717) for 1 h at room temperature. Protein bands were visualized by chemiluminescence using the ECL Western Blotting Substrate (Thermo Fisher Scientific, MA).
To stain the intracellular marker, e.g., IFN-γ, cells were pre-stimulated with cell stimulation cocktail (eBioscience, cat. no. 00-4970-93) for 4-6 h, fixed and permeabilized using fixation/permeabilization solution kit (BD, cat. no. 554714), and then stained with both anti-IFN-γ and other surface antibodies. Antibodies used for flow cytometry studies were anti-CD86-BUV395 (BD, cat. no. 564199), anti-CD45-BUV737 (BD, cat. no. 564880), anti-TCRβ-BV421 (Biolegend, cat. no. 109229), anti-NK1.1-BV605 (Biolegend, cat. no. 108739), anti-NK1.1-BV605 (Biolegend, cat. no. 108739), anti-CD8a-FITC (BD, cat. no. 553030), anti-CD4-PerCP/Cy5.5 (BD, cat. no. 550954), anti-CD62L-PE (Biolegend, cat. no. 104407), anti-CD19-PE/Cy7 (eBioscience, cat. no. 25-0193-81), anti-CD3-PE/594 (Biolegend, cat. no. 100245), anti-FOXP3-APC (eBioscience, cat. no. 17-5773-80), anti-CD11b-AF700 (Biolegend, cat. no. 201222), anti-CD8a-BV421 (Biolegend, cat. no. 100737), anti-Ly6g-BV510 (Biolegend, cat. no. 127633), anti-Siglec F-BV605 (BD, cat. no. 740388), anti-MHC II-BV786 (BD, cat. no. 743875), anti-Ly6c-AF488 (Biolegend, cat. no. 128021), anti-CD11c-PerCP/Cy5.5 (Biolegend, cat. no. 117327), anti-CD206-PE (Biolegend, cat. no. 141705), anti-CD197-PE/594 (Biolegend, cat. no. 120121), anti-F4/80-PE/Cy7 (Biolegend, cat. no. 123113), anti-CD200R3-APC (Biolegend, cat. no. 142207), anti-CD11b-AF700 (Biolegend, cat. no. 101222), and viability dye eFluor 780 (eBiosciecne, cat. no. 65-0865-14). Flow cytometry data were acquired on an LSRFortessa cell analyzer (BD) and analyzed using FlowJo software.

B16F10 tumor recurrence = assay: Treatment of surgically removed B16F10 tumor and re-challenge; format: in vivo, mice
From the text: 2×10^5 B16F10 cells were subcutaneously injected to the right rear flank of C57BL/6 female mice. Six days after tumor inoculation, B16F10 tumor-bearing mice were randomly divided into 4 experimental groups (n=8 for each group): untreated, 1×cGAMP-S plus EPs, 3×cGAMP-S, and 1×cGAMP-S plus cGAMP-MPs, respectively. ˜99% of tumor volume was surgically removed, leaving ˜1% residual tumor to mimic residual microtumors. Upon the removal of tumors, cGAMP-MPs (10m of cGAMP-S, 5 PLGA-1 microdevices containing 10 μg of cGAMP, and 5 PLGA-2 microdevices containing 10 μg of cGAMP) or 1×cGAMP-S plus EPs (10m of cGAMP-S, 5 each of empty PLGA-1 and PLGA-2 microdevices) in 50 μL MC solution were directly applied to the surgical bed through a micropipette. For 3×cGAMP-S treated group, 10 μg of cGAMP-S was applied to the surgical bed after surgery followed by intratumoral injections of 10 μg of cGAMP at days 4 and 8 post-surgery (FIG. 6A). The wound was closed by an autoclip wound clip system. Tumor size was measured with a digital caliper every other day starting at day 7 post tumor inoculation. For the re-challenge experiment, 2×10^5 B16F10 cells were subcutaneously injected to the left rear flank of treated mice with complete responses. Tumor size was measured every other day with a digital caliper.

[2] = tested on: KPC pancreatic cancer cells; assay: Treatment of orthotopic pancreatic tumor model; format: in vivo, mice; details: 25 days; cGAMP-MPs three doses at days 0, 4, 8; cGAMP-S single high dose (30 μg) with EPs
Experimental: A small incision was made to exteriorize the spleen and pancreas of C57BL/6 female mice. 5×10^5 KPC cells in 50 μL of PBS and Matrigel (1:1 mixture by volume) were injected into the tail of the pancreas. cGAMP-MPs (10 μg of cGAMP-S, 5 PLGA-1 microdevices containing 10 μg of cGAMP and 5 PLGA-2 microdevices containing 10 μg of cGAMP) or 1×cGAMP-S plus EPs (30m of cGAMP-S, 5 each of empty PLGA-1 and PLGA-2 microdevices) in 50 μL MC solution were also injected into the tail of the pancreas. The wound was then closed by an autoclip wound clip system. Mice were euthanized 25 days after tumor inoculation. The tumors were isolated and weighted by a balance. Metastasis to lungs was evaluated by H&E staining of lung sections.

[3] = tested on: ecto-nucleotide pyrophosphatase/phosphodiesterase 1 (ENPP1); details: versus naturally produced 2′3′-cGAMP; Kato K. et al.; cited from earlier work
[4] = day 16, cGAMP-MPs single injection, cGAMP-S three injections

Nc1nc2c(ncn2[C@@H]2O[C@@H]3COP(=O)(O)O[C@H]4[C@@H](O)[C@H](n5cnc6c(N)ncnc65)O[C@@H]4COP(=O)(O)O[C@H]3[C@H]2O)c(=O)[nH]1 [cGAMP-S, 3′3′-cGAMP]
polarization of macrophages within the TME ([1]; 3 doses of soluble cGAMP or 1 dose of cGAMP-MPs): repolarization of M2-like macrophages in the tumor to M1-like phenotype | increase of CD8+/CD4+ T cell ratio [1, 4]: 1.2 fold | increase of TILs compared to untreated [1, 4]: approximately 23.5 fold | increase of surface expression of CD86 on tumor infiltrating DCs [1, 4]: 1.7 fold | increase of tumor-infiltrating CD4+ T cells [1, 4]: 23.6 fold | increase of tumor-infiltrating CD8+ T cells [1, 4]: 24.4 fold | infiltrating natural killer (NK) cells [1, 4]: increased | influx of DCs, basophils, monocytes and macrophages [1, 4]: promoted the influx | tumor recurrence rate (B16F10 tumor recurrence; cGAMP-MPs single application, cGAMP-S three doses, untreated 100%): 25% | tumor recurrence rate (B16F10 tumor recurrence; single dose of cGAMP-S plus EPs): 87.5% | survival after re-challenge (B16F10 tumor recurrence; tumor-free mice re-challenged with B16F10 cells): prolonged survival time | tumor growth after re-challenge versus naïve mice (B16F10 tumor recurrence; tumor-free mice re-challenged with B16F10 cells at day 60): significantly slower | metastasis to lungs [2]: did not show benefits | primary tumor growth in the pancreas [2]: did not show benefits | stability against ENPP1 [3]: enhanced stability

From patent US12390537B2, “Compositions of polymeric microdevices and methods of use thereof in cancer immunotherapy” (Massachusetts Institute of Technology, priority 2020, dated 2025)
